Tests used:
Type in all cases: cell-based, human
CNCM I-2548 = experiment: proliferation inhibition, 3H-Thymidine incorporation; conditions: concentration inducing at least 50% inhibition of maximal proliferation
Description: (§1) Melanoma cell lines were screened for their sensitivity to proliferation inhibition and HLA class I induction. The study was done of six cell lines (CNCM I-2544, CNCM I-2545, CNCM I-2546, CNCM I-2547, CNCM I-2548 and CNCM I-2549).
(§2) All these cell lines were cultured in RPMI medium supplemented with 10% FCS, glutamine (2 mM), sodium pyruvate (1 mM), non-essential amino acids and HEPES buffer (10 mM) (all from GIBCO Life Sciences, Paisley, UK). When confluent, the cells were passaged by trypsinization.
(§3) A number of established melanoma cell lines were assayed for their sensitivity to IFN-α by testing the capacity of IFN-α to inhibit their proliferation and to increase their surface expression of HLA class I determinants.

CNCM I-2544 = experiment: as above; conditions: concentration inducing at least 50% inhibition of maximal proliferation
Description: as §1, §2, §3

CNCM I-2546 = experiment: as above; conditions: concentration inducing at least 50% inhibition of maximal proliferation
Description: as §1, §2, §3

CNCM I-2547 = experiment: as above; conditions: concentration inducing at least 50% inhibition of maximal proliferation
Description: as §1, §2, §3

[1] = test system: CNCM I-2545 and CNCM I-2546; experiment: oligonucleotide array analysis, clustering of genes by mode of regulation; conditions: 1st symbol CNCM I-2545, 2nd CNCM I-2546
Description: as §2
Cultured melanoma cells were harvested by scraping and total cellular RNA was extracted. 10 μg from each sample were used directly as templates for cDNA synthesis using a commercial kit (Roche Molecular Biochemicals, Rotkreuz, Switzerland). The T7 promoter sequence incorporated into the cDNA synthesis primer allowed template amplification and biotin labeling by in vitro transcription using a commercial kit (Affymetrix, Santa Clara, Calif.). After alkaline heat fragmentation […] was hybridised to the array (Affymetrix, Santa Clara, Calif.) and all subsequent steps were performed following standard procedures as supplied with the arrays. Raw data were collected with a confocal laser scanner (Hewlett Packard, Palo Alto, Calif.) using GeneChip software v3.1 (Affymetrix, Santa Clara, Calif.).
Raw data were normalized based on the total chip signal obtained upon hybridisation of ME15 cell line cDNA. This array was selected because: i) the 5′/3′ intensity ratio of control genes was smaller than 3; ii)>25% of the genes are called “present” by Genechip; iii) the image appearance is homogeneous with low background and no sign of mechanical chip damage.
The normalized average difference (nAD) between the signals of the perfect and of the mismatch probesets for each gene was used as the expression level of a given gene. At least one nAD value in a pairwise comparison of data has to exceed 50 to be included. Based on nAD, change factors related to IFN-α exposure were also calculated. Negative nAD values were set to 20 in order to avoid the calculation of artificially high modifications. In order to exclude artefacts, only genes with robust change factors, greater than 2-fold, were included in the analysis. […] Genes were clustered according to their mode of regulation.
Patterns of genes expressed in IFN-α sensitive and resistant melanoma cell lines were investigated upon 48 hour culture in the presence of IFN-α. CNCM I-2546 and CNCM I-2545 were studied in detail.
In Table 2 below, CNCM I-2546 and CNCM I-2545 cultured for 48 hours in the absence or in the presence of 100 U/ml IFN-α were used to assay cytokine modulated gene expression as matched with data obtained in fibrosarcoma cells. This analysis yielded six clusters of genes. […] Data are presented as average difference of signal intensity between match and mismatch probesets.
In Table 3 below, CNCM I-2546 and CNCM I-2545 cell lines cultured for 48 hours in the absence or in the presence of 100 U/ml IFN-α were used to identify novel cytokine induced genes whose expression was not found to be modulated in fibrosarcoma cells. Cluster 1 includes genes inducible in the CNCM I-2546 sensitive but not in the CNCM I-2545 resistant cell line. Cluster 2 comprises genes inducible in both lines. Data are presented as average difference of signal intensity between match and mismatch probesets.

IFN-α
proliferation inhibition (IC50) (CNCM I-2548): 10 U/ml | proliferation inhibition (IC50) (CNCM I-2544): 100 U/ml | proliferation inhibition (IC50) (CNCM I-2546): 100 U/ml | proliferation inhibition (IC50) (CNCM I-2547): 10 U/ml | cluster's characteristics D28137 bst-2 ([1]; Cluster 1): ˜u | cluster's characteristics D49824 hla-b null allele ([1]; Cluster 1): ˜u | cluster's characteristics HG658 major histocompatibility complex, class 1 c ([1]; Cluster 1): ˜u | cluster's characteristics HG2917 major histocompatibility complex, class i, e ([1]; Cluster 1): ˜u | cluster's characteristics J00105 beta-2 microglobulin gene ([1]; Cluster 1): ˜u | cluster's characteristics J04164 interferon-inducible protein 27-sep ([1]; Cluster 1): ˜u | cluster's characteristics M13755 interferon-induced 17-kda/15-kda protein ([1]; Cluster 1): ˜u | cluster's characteristics M19650 2′,3′-cyclic nucleotide 3prime-phosphodiesterase ([1]; Cluster 1): ˜u | cluster's characteristics M94880 mhc class i (hla-a*8001) ([1]; Cluster 1): ˜u | cluster's characteristics U22970 16-jun gene, interferon-inducible peptide (6-16) ([1]; Cluster 1): ˜u | cluster's characteristics U50648 interferon-inducible rna-dependent protein kinase (pkr) ([1]; Cluster 1): ˜u | cluster's characteristics U51127 interferon regulatory factor 5 ([1]; Cluster 1): ˜u | cluster's characteristics X02874 2-5A synthetase (1.6 kb) ([1]; Cluster 1): ˜u | cluster's characteristics X07730 prostate specific antigen ([1]; Cluster 1): ˜u | cluster's characteristics X57351 1-8d gene from interferon-inducible gene family ([1]; Cluster 1): ˜u | cluster's characteristics X57522 ring4 cdna ([1]; Cluster 1): ˜u | cluster's characteristics X67325 p27 ([1]; Cluster 1): ˜u | cluster's characteristics X96401 rox protein ([1]; Cluster 1): ˜u | cluster's characteristics Z56281 interferon regulatory factor 3 ([1]; Cluster 1): ˜u | cluster's characteristics M98343 amplaxin (ems1) ([1]; Cluster2): uu | cluster's characteristics J03909 gamma-interferon-inducible protein (ip-30) ([1]; Cluster3): u˜ | cluster's characteristics M92642 alpha-1 type xvi collagen (col16a1) ([1]; Cluster3): u˜ | cluster's characteristics U41515 dss1 ([1]; Cluster3): u˜ | cluster's characteristics L40387 thyroid receptor interactor (trip14) ([1]; Cluster4): du | cluster's characteristics M97935 transcription factor isgf-3 ([1]; Cluster4): du | cluster's characteristics U01824 glutamate/aspartate transporter ([1]; Cluster4): du | cluster's characteristics U53830 interferon regulatory factor 7a ([1]; Cluster4): du | cluster's characteristics U72882 interferon-induced leucine zipper protein (ifp35) ([1]; Cluster4): du | cluster's characteristics J00212 leukocyte interferon (ifn-alpha) ([1]; Cluster 5): d˜ | cluster's characteristics K01900 lymphocyte interferon alpha type 201 ([1]; Cluster 5): d˜ | cluster's characteristics L42243 ifnar2 gene (interferon receptor) ([1]; Cluster 5): d˜ | cluster's characteristics M79462 pml-1 ([1]; Cluster 5): d˜ | cluster's characteristics U52513 rig-g ([1]; Cluster 5): d˜ | cluster's characteristics X90846 mixed lineage kinase 2 ([1]; Cluster 5): d˜ | cluster's characteristics M30818 interferon-induced cellular resistance mediator protein ([1]; Cluster 6): ˜d | cluster's characteristics X15949 interferon regulatory factor-2 (irf-2) ([1]; Cluster 6): ˜d | cluster's characteristics D21235 hhr23a protein ([1]; Table 3 Cluster 1): ˜u | cluster's characteristics D28137 bst-2 ([1]; Table 3 Cluster 1): ˜u | cluster's characteristics D32050 alanyl-trna synthetase ([1]; Table 3 Cluster 1): ˜u | cluster's characteristics D50914 EST ([1]; Table 3 Cluster 1): ˜u | cluster's characteristics HG1612 macmarcks ([1]; Table 3 Cluster 1): ˜u | cluster's characteristics K03515 neuroleukin ([1]; Table 3 Cluster 1): ˜u | cluster's characteristics L13210 mac-2 binding protein ([1]; Table 3 Cluster 1): ˜u | cluster's characteristics L37043 casein kinase i epsilon ([1]; Table 3 Cluster 1): ˜u | cluster's characteristics M31013 nonmuscle myosin heavy chain (nmhc) ([1]; Table 3 Cluster 1): ˜u | cluster's characteristics M34338 spermidine synthase ([1]; Table 3 Cluster 1): ˜u | cluster's characteristics S81914 iex-1 = radiation-inducible immediate-early gene ([1]; Table 3 Cluster 1): ˜u | cluster's characteristics U09579 melanoma differentiation associated (mda-6) ([1]; Table 3 Cluster 1): ˜u | cluster's characteristics U18009 chromosome 17q21 clone lf113 ([1]; Table 3 Cluster 1): ˜u | cluster's characteristics U18018 ela enhancer binding protein (ela-f) ([1]; Table 3 Cluster 1): ˜u | cluster's characteristics U47025 fetal brain glycogen phosphorylase b ([1]; Table 3 Cluster 1): ˜u | cluster's characteristics U50327 protein kinase c substrate 80k-h gene (prkcsh) ([1]; Table 3 Cluster 1): ˜u | cluster's characteristics U61263 acetolactate synthase homolog ([1]; Table 3 Cluster 1): ˜u | cluster's characteristics U65579 mitochondrial nadh dehydrogenase-ubiquinone ([1]; Table 3 Cluster 1): ˜u | cluster's characteristics U65932 extracellular matrix protein 1 (ecm1) ([1]; Table 3 Cluster 1): ˜u | cluster's characteristics U69126 fuse binding protein 2 (fbp2) ([1]; Table 3 Cluster 1): ˜u | cluster's characteristics U72206 guanine nucleotide regulatory factor (lfp40) ([1]; Table 3 Cluster 1): ˜u | cluster's characteristics U91316 acyl-coa thioester hydrolase ([1]; Table 3 Cluster 1): ˜u | cluster's characteristics X04412 plasma gelsolin ([1]; Table 3 Cluster 1): ˜u | cluster's characteristics X76538 mpv17 ([1]; Table 3 Cluster 1): ˜u | cluster's characteristics X95325 dna binding protein a variant ([1]; Table 3 Cluster 1): ˜u | cluster's characteristics Y00264 amyloid a4 precursor ([1]; Table 3 Cluster 1): ˜u | cluster's characteristics Z26491 gene catechol o-methyltransferase ([1]; Table 3 Cluster 1): ˜u | cluster's characteristics D78132 rheb gene, ras-related gtp binding protein gene ([1]; Table 3 Cluster 2): uu | cluster's characteristics J04182 lysosomal membrane glycoprotein-1 (lamp1) ([1]; Table 3 Cluster 2): uu | cluster's characteristics J04444 cytochrome c-1 gene ([1]; Table 3 Cluster 2): uu | cluster's characteristics L07633 interferon-gamma ([1]; Table 3 Cluster 2): uu | cluster's characteristics L35249 vacuolar h + -atpase mr 56,000 subunit (ho57) ([1]; Table 3 Cluster 2): uu | cluster's characteristics M60784 ul snrnp-specific protein ([1]; Table 3 Cluster 2): uu | cluster's characteristics M65028 heterogeneous nuclear ribonucleoprotein a/b ([1]; Table 3 Cluster 2): uu | cluster's characteristics U70063 human acid ceramidase ([1]; Table 3 Cluster 2): uu | cluster's characteristics U78525 human eukaryotic translation initiation factor (eif3) ([1]; Table 3 Cluster 2): uu | cluster's characteristics X70848 protein phosphatase 1, catalytic subunit ([1]; Table 3 Cluster 2): uu | cluster's characteristics Z47055 farnesyl pyrophosphate synthetase like ([1]; Table 3 Cluster 2): uu

Source: US20030096237A1, “Determination of the ability of patients to respond to a tumor treatment” (priority 2000, published 2003)
